Test results as given in patent publication US5045566A, “Novel imidate insecticides” (ICI Americas Inc., priority 1989, dated 1991).

How the values were obtained:
Format in all cases: in vivo
[1] = test system: Housefly [Musca domestica]; assay: Housefly contact mortality in dishes (HF), 48 hours; conditions: μg of test compound per 25 female flies
Outline: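 Acetone solutions (with 0.01% peanut oil) dried onto dish bottoms, then 25 female flies, 1-2 days old, caged over the residue with sugar water. Mortality scored at 48 hours; LC50 from dosage-mortality curves, in μg per 25 female flies, top level 100 μg.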

[2] = test system: Black Bean Aphid [Aphis fabae (Scop.)]; assay: Black bean aphid spray test on nasturtium (BBA), 48 hours; conditions: percent of test compound in sprayed solution
Outline: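 LC50, given as percent test compound in the sprayed liquid, was calculated from dosage-mortality curves using concentrations from 0.05% downward. Sprays in 50:50 acetone-water went to runoff on ~5 cm nasturtiums carrying 25-50 aphids of mixed ages, one day after infestation. Deaths were counted 48 h later under greenhouse conditions.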

[3] = test system: Tobacco Budworm [Heliothis virescens (Fabricius)] larvae; assay: Tobacco budworm larvae, contact (TBW-C), 5 days; conditions: percent in solution, second-instar larvae
Outline: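 Cotton cotyledons dipped 2–3 s in compound in 50-50 acetone-water, dried, then infested with 5 second-instar larvae and held 5 days at high humidity. Mortality scored; LC50 from dosage-mortality curves, expressed as percent compound in solution, concentrations from 0.1% downward.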

[4] = test system: Tobacco Budworm [Heliothis virescens (Fabricius)] eggs; assay: Tobacco budworm eggs (TBW-E); conditions: percent in solution; 2-day old eggs
Outline: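 Mortality of dipped eggs served as read-out, recorded after untreated controls hatched and began feeding. Treatments used acetone solutions from 0.1% downward, with eggs incubated at 78° F; LC50 is expressed as percent of compound in the solution.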

[5] = test system: Beet Armyworm (Spodoptera exigua); assay: Beet armyworm leaf dip (BAW), 5 days; conditions: percent in solution; second-instar larvae; five days
Outline: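 Sugar beet leaves dipped 2–3 s in compound diluted in 50:50 acetone-water, dried, then infested with five second-instar larvae in humid petri dishes. Mortality scored at 5 days; concentrations from 0.1% downward. LC50 from dosage-mortality curves, expressed as percent compound in solution.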

[6] = test system: Cabbage Looper [Trichoplusia ni (Hubner)]; assay: Cabbage looper leaf dip (CL), 3-5 days; conditions: percent in solution, second-instar larvae
Outline: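 Steps: dilute compound in 50-50 acetone-water from 0.1% downward; immerse cotyledon pieces 2-3 s and dry; place in humid petri dishes with five second-instar larvae; record mortality at 3-5 days. Dosage-mortality curves yield LC50 as percent in solution.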

[7] = test system: Aster Leafhopper [Macrosteles fascifrens (Stal)]; assay: Aster leafhopper on dipped oat seedlings (LH), 48 hours; conditions: percent in solution, adults/nymphs
Outline: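 Three ~10 cm oat seedlings per cup were dipped 2-3 seconds in 50-50 acetone-water compound solutions, dried, and caged with ten adult/nymph leafhoppers. Mortality was counted after 48 hours at concentrations from 0.05% downward. LC50, as percent compound in solution, came from dosage-mortality curves.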

[8] = test system: Maize weevil [Sitophilus zeamais (Motschulsky)]; assay: Maize weevil on dipped corn seeds (MW), 48 hours; conditions: percent in solution, adult weevils
Outline: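 LC50, given as percent of compound in dipping solution, comes from dosage-mortality curves over concentrations descending from 0.01%. Four corn seeds soaked 2-3 s in 50:50 acetone:water solution were dried and held with 10 adult weevils, about 25° C, mortality read after 48 h.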

[9] = test system: Rice water weevil [Lissorhoptrus oryzophilus (Kuschel)]; assay: Rice water weevil topical (RWW), 48 hours; conditions: μg of test compound per weevil, female adults
Protocol: The compounds in Tables 1 and 2 above were tested for insecticidal activity using the following testing procedures. LC50 values, based on the results of these tests and calculated according to dosage-mortality curves, are expressed in Table 3.
Rice water weevil [Lissorhoptrus oryzophilus (Kuschel)]:
Test compounds were diluted in acetone. Droplets (1 ul) of test solutions were applied to the ventral abdomens of ten female adult weevils. The treated weevils were placed in containers with wet cotton balls and rice foliage. The containers were covered and kept at a temperature of about 25° C. Mortality was recorded after 48 hours. Test concentrations ranged from […] down to that at which 50% mortality occurred. The LC50 values are expressed below in Table 3 under the heading "RWW" in terms of μg of test compound per weevil.

## CC(C)C(=Nc1ccc(OC(F)(F)F)cc1)OCc1ccc(F)c(Oc2ccc(F)cc2)c1 [Compound 286]
[1]
  LC50 HF: 34 µg
[2]
  LC50 BBA: 0.0003%
[3]
  LC50 TBW C (contact): 0.00017%
[4]
  LC50 TBW E (eggs): 0.005%
[5]
  LC50 BAW: 0.0004%
[6]
  LC50 CL: 0.000024%
[7]
  LC50 LH: 0.0006%
[8]
  LC50 MW: 0.0039%
[9]
  LC50 RWW: 0.09 µg

## CC(C)C(=Nc1ccc2c(c1)OC(F)(F)O2)OCc1cccc(Oc2ccc(F)cc2)c1 [Compound 244]
[1]
  LC50 HF: 14 µg
[2]
  LC50 BBA: 0.0006%
[3]
  LC50 TBW C (contact): 0.00025%
[4]
  LC50 TBW E (eggs): > 0.1%
[5]
  LC50 BAW: 0.002%
[6]
  LC50 CL: 0.00004%
[8]
  LC50 MW: 0.0025%
[9]
  LC50 RWW: 0.09 µg

## CC(C)C(=Nc1ccc(F)c(Cl)c1F)OCc1cccc(Oc2ccc(F)cc2)c1 [Compound 352]
[1]
  LC50 HF: 4.6 µg
[2]
  LC50 BBA: 0.0003%
[3]
  LC50 TBW C (contact): 0.0004%
[4]
  LC50 TBW E (eggs): > 0.1%
[5]
  LC50 BAW: > 0.1%
[6]
  LC50 CL: 0.000065%
[7]
  LC50 LH: 0.0004%
[8]
  LC50 MW: 0.0075%
[9]
  LC50 RWW: > 2.5 µg

## CC(C)C(=Nc1ccc2c(c1)OC(F)(F)O2)OCc1cccc(Oc2ccccc2)c1 [Compound 245]
[1]
  LC50 HF: 20 µg
[2]
  LC50 BBA: 0.0003%
[3]
  LC50 TBW C (contact): 0.0015%
[4]
  LC50 TBW E (eggs): 0.016%
[5]
  LC50 BAW: 0.001%
[6]
  LC50 CL: 0.0035%
[8]
  LC50 MW: 0.006%
[9]
  LC50 RWW: > 2.5 µg

## CC(C)C(=Nc1ccc(F)c(F)c1)OCc1ccc(F)c(Oc2ccccc2)c1 [Compound 336]
[1]
  LC50 HF: 3.6 µg
[2]
  LC50 BBA: 0.0003%
[3]
  LC50 TBW C (contact): 0.0005%
[4]
  LC50 TBW E (eggs): 0.02%
[5]
  LC50 BAW: 0.001%
[6]
  LC50 CL: 0.00017%
[8]
  LC50 MW: 0.0091%
[9]
  LC50 RWW: > 2.5 µg

## CC(C)C(=Nc1ccc(F)c(Cl)c1)OCc1ccc(F)c(Oc2ccccc2)c1 [Compound 82]
[1]
  LC50 HF: 2.5 µg
[2]
  LC50 BBA: 0.00021%
[3]
  LC50 TBW C (contact): 0.0008%
[4]
  LC50 TBW E (eggs): 0.006%
[5]
  LC50 BAW: 0.0025%
[6]
  LC50 CL: 0.00018%
[7]
  LC50 LH: 0.0001%
[9]
  LC50 RWW: 0.086 µg

## CC(C)C(=Nc1ccc(F)c(Br)c1)OCc1ccc(F)c(Oc2ccc(F)cc2)c1 [Compound 273]
[1]
  LC50 HF: 7 µg
[2]
  LC50 BBA: 0.0003%
[3]
  LC50 TBW C (contact): 0.00025%
[4]
  LC50 TBW E (eggs): 0.015%
[5]
  LC50 BAW: 0.0017%
[6]
  LC50 CL: 0.000018%
[7]
  LC50 LH: 0.0003%
[8]
  LC50 MW: 0.004%
[9]
  LC50 RWW: > 2.5 µg

## CC(C)C(=Nc1ccc(F)c(Cl)c1)OCc1cccc(Oc2ccc(Cl)cc2)c1 [Compound 239]
[1]
  LC50 HF: 14 µg
[2]
  LC50 BBA: 0.001%
[3]
  LC50 TBW C (contact): 0.0005%
[4]
  LC50 TBW E (eggs): 0.025%
[5]
  LC50 BAW: 0.005%
[6]
  LC50 CL: 0.00015%
[7]
  LC50 LH: 0.002%
[8]
  LC50 MW: 0.006%
[9]
  LC50 RWW: > 2.5 µg

## CC(C)C(=Nc1ccc(C(F)(F)F)cc1)OCc1ccc(F)c(Oc2ccccc2)c1 [Compound 337]
[1]
  LC50 HF: 21 µg
[2]
  LC50 BBA: 0.0003%
[3]
  LC50 TBW C (contact): 0.0005%
[4]
  LC50 TBW E (eggs): 0.008%
[5]
  LC50 BAW: 0.0005%
[6]
  LC50 CL: 0.0007%
[8]
  LC50 MW: 0.0053%
[9]
  LC50 RWW: 0.067 µg

## CC(C)C(=Nc1ccc(F)c(C(F)(F)F)c1)OCc1ccc(F)c(Oc2ccc(F)cc2)c1 [Compound 277]
[1]
  LC50 HF: 4 µg
[2]
  LC50 BBA: 0.0008%
[3]
  LC50 TBW C (contact): 0.0005%
[4]
  LC50 TBW E (eggs): 0.013%
[5]
  LC50 BAW: 0.005%
[6]
  LC50 CL: 0.00001%
[7]
  LC50 LH: 0.0003%
[8]
  LC50 MW: > 0.01%
[9]
  LC50 RWW: 0.065 µg

## CC(C)C(=Nc1ccc(F)c(Cl)c1)OCc1cccc(Oc2ccc(F)cc2)c1 [Compound 89]
[1]
  LC50 HF: 5 µg
[2]
  LC50 BBA: 0.003%
[3]
  LC50 TBW C (contact): 0.0005%
[4]
  LC50 TBW E (eggs): 0.04%
[5]
  LC50 BAW: 0.009%
[6]
  LC50 CL: 0.00003%
[7]
  LC50 LH: 0.001%
[8]
  LC50 MW: 0.005%
[9]
  LC50 RWW: > 2.5 µg

## CC(C)C(=Nc1ccc(F)c(I)c1)OCc1ccc(F)c(Oc2ccc(F)cc2)c1 [Compound 281]
[1]
  LC50 HF: 5 µg
[2]
  LC50 BBA: 0.0003%
[3]
  LC50 TBW C (contact): 0.00025%
[4]
  LC50 TBW E (eggs): 0.006%
[5]
  LC50 BAW: 0.0027%
[6]
  LC50 CL: 0.00002%
[8]
  LC50 MW: 0.005%
[9]
  LC50 RWW: > 2.5 µg

## CC(C)C(=Nc1cc(F)cc(F)c1)OCc1cccc(Oc2ccccc2)c1 [Compound 55]
[1]
  LC50 HF: > 100 µg
[2]
  LC50 BBA: 0.003%
[3]
  LC50 TBW C (contact): 0.004%
[4]
  LC50 TBW E (eggs): 0.06%
[5]
  LC50 BAW: 0.006%
[6]
  LC50 CL: 0.0017%
[7]
  LC50 LH: 0.0005%
[9]
  LC50 RWW: > 2.5 µg

## CC(C)C(=Nc1ccc(F)c(F)c1)OCc1ccc(F)c(Oc2ccc(F)cc2)c1 [Compound 278]
[1]
  LC50 HF: 3 µg
[2]
  LC50 BBA: 0.0005%
[3]
  LC50 TBW C (contact): 0.00026%
[4]
  LC50 TBW E (eggs): 0.008%
[5]
  LC50 BAW: 0.0012%
[6]
  LC50 CL: 0.00002%
[7]
  LC50 LH: 0.0003%
[8]
  LC50 MW: 0.0063%
[9]
  LC50 RWW: 0.085 µg

## CC(C)C(=Nc1ccc(OC(F)(F)F)cc1)OCc1ccc(F)c(Oc2ccc(Cl)cc2)c1 [Compound 323]
[1]
  LC50 HF: > 100 µg
[2]
  LC50 BBA: > 0.05%
[3]
  LC50 TBW C (contact): 0.00065%
[4]
  LC50 TBW E (eggs): 0.045%
[5]
  LC50 BAW: 0.0025%
[6]
  LC50 CL: 0.0006%
[7]
  LC50 LH: 0.05%
[8]
  LC50 MW: 0.0075%
[9]
  LC50 RWW: 0.16 µg

## CC(C)C(=Nc1ccc(Cl)cc1)OCc1cccc(Oc2ccc(Cl)cc2)c1 [Compound 269]
[1]
  LC50 HF: 25 µg
[2]
  LC50 BBA: > 0.05%
[3]
  LC50 TBW C (contact): 0.001%
[4]
  LC50 TBW E (eggs): 0.04%
[5]
  LC50 BAW: 0.0024%
[6]
  LC50 CL: 0.0003%
[7]
  LC50 LH: 0.003%
[8]
  LC50 MW: > 0.01%
[9]
  LC50 RWW: > 2.5 µg

## CC(C)C(=Nc1ccc2c(c1)OCO2)OCc1cccc(Oc2ccccc2)c1 [Compound 180]
[1]
  LC50 HF: 2 µg
[2]
  LC50 BBA: 0.0003%
[3]
  LC50 TBW C (contact): 0.003%
[4]
  LC50 TBW E (eggs): 0.03%
[5]
  LC50 BAW: 0.005%
[6]
  LC50 CL: 0.0004%
[7]
  LC50 LH: 0.0015%
[8]
  LC50 MW: 0.008%
[9]
  LC50 RWW: > 2.5 µg

## CC(C)C(=Nc1ccc(F)c(F)c1F)OCc1ccc(F)c(Oc2ccc(F)cc2)c1 [Compound 349]
[1]
  LC50 HF: 4.9 µg
[2]
  LC50 BBA: > 0.05%
[3]
  LC50 TBW C (contact): 0.0004%
[4]
  LC50 TBW E (eggs): > 0.1%
[5]
  LC50 BAW: > 0.1%
[6]
  LC50 CL: 0.00007%
[8]
  LC50 MW: > 0.01%
[9]
  LC50 RWW: > 2.5 µg

## CC(C)C(=Nc1ccc(F)c(Cl)c1)OCc1ccc(F)c(Oc2ccc(F)cc2)c1 [Compound 216]
[1]
  LC50 HF: 2 µg
[2]
  LC50 BBA: 0.00025%
[3]
  LC50 TBW C (contact): 0.00018%
[4]
  LC50 TBW E (eggs): 0.005%
[5]
  LC50 BAW: 0.0007%
[6]
  LC50 CL: 0.000007%
[7]
  LC50 LH: 0.00025%
[8]
  LC50 MW: 0.0017%
[9]
  LC50 RWW: 0.067 µg
